The results in this text go back to patent US20230050653A1, “ROCK INHIBITOR AND PREPARATION METHOD THEREFOR AND USE THEREOF” (WUHAN LL SCIENCE AND TECHNOLOGY DEVELOPMENT CO., LTD., priority 2019, published 2023).

The nature of series [1]: In vitro cytotoxicity assay in HepG2 cells, CCK-8 method. Conditions: human.
Description: (§1) In vitro cytotoxicity assay for the compounds disclosed herein was performed in HepG2 cells using the CCK-8 method. HepG2 cells (Beina Bio) in the logarithmic growth phase were collected, the concentration of cell suspension was adjusted, and then the cells were plated on a 96-well cell culture plate at 50,000 cells/well. The cells were then incubated overnight in a cell incubator (5%, 37° C.), and after 80-90% cell confluence was achieved, test compound at each concentration gradient or vehicle (DMSO) was added after medium change. The resulting mixture was incubated in the cell incubator (5%, 37° C.) for 48 h. After the treatment, the medium in the plate was discarded. The plate was washed twice with PBS, added with CCK-8 working solution (Beyotime) at 100 μL per well, and then incubated at 37° C. for 1.5 h in the dark. Absorbance at OD450 nm was measured for each well on a microplate reader, and CC50 value of each compound was analyzed and calculated.
For series [2], the target named is T1, ROCK2 kinase (Homo sapiens, UniProt O75116).
T1 construct: purchased Invitrogen PV3759
Description: In vitro evaluation of ROCK2 kinase activity (HTRF KinEASE-STK time-resolved fluorometric assay). Format: biochemical. The procedure, abridged:
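ROCK2 (0.4 ng/μL final) was preincubated with compound (1% DMSO) for 0.5 h at room temperature in kinase buffer with 5 mM MgCl2, 1 mM DTT. Reaction with ATP 6.739 μM and STK-substrate 2-biotin 1 μM ran 2 h at room temperature; HTRF read-out after ~1 h detection.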

Series [3] deals with T2, ROCK1 kinase (Homo sapiens, UniProt Q13464).
T2 construct: purchased Invitrogen
Description: In vitro evaluation of ROCK1 kinase selectivity (HTRF KinEASE-STK time-resolved fluorometric assay). Format: biochemical. The procedure, abridged: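 Recombinant ROCK1 (0.4 ng/μL final) preincubated with compound (1% DMSO) for 0.5 h at room temperature in buffer with 5 mM MgCl2 and 1 mM DTT. Reaction started with ATP and biotinylated STK-substrate 2 (3.53 μM and 1 μM final), run 2 h at room temperature. HTRF detection with STK antibody-Cryptate/streptavidin-XL665 after about 1 h.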

A short description of series [4]: In vivo pharmacokinetic study in mice. Conditions: mouse, plasma. The text has this: In Vivo Pharmacokinetic Study of Compounds Disclosed Herein in Mice SPF-grade mice (SPF (Beijing) Biotechnology Co., Ltd.) were fasted overnight (without water deprivation) after adaptive feeding, and then received the compound of the present disclosure by intragastrical administration and bolus injection at tail vein. After administration, plasma of mice was collected at specific time points, and the concentration of the compound in the plasma was detected by LC-MS/MS (AB SCIEX Qtrap4500). The PK parameters of the compounds were statistically analyzed and calculated (WinNonlin V5.2, Pharsight) to show the pharmacokinetic properties of the compounds in mice.

In series [5] the test system is HepG2 cells.
Description: as §1

T2 sequence (Q13464 whole entry): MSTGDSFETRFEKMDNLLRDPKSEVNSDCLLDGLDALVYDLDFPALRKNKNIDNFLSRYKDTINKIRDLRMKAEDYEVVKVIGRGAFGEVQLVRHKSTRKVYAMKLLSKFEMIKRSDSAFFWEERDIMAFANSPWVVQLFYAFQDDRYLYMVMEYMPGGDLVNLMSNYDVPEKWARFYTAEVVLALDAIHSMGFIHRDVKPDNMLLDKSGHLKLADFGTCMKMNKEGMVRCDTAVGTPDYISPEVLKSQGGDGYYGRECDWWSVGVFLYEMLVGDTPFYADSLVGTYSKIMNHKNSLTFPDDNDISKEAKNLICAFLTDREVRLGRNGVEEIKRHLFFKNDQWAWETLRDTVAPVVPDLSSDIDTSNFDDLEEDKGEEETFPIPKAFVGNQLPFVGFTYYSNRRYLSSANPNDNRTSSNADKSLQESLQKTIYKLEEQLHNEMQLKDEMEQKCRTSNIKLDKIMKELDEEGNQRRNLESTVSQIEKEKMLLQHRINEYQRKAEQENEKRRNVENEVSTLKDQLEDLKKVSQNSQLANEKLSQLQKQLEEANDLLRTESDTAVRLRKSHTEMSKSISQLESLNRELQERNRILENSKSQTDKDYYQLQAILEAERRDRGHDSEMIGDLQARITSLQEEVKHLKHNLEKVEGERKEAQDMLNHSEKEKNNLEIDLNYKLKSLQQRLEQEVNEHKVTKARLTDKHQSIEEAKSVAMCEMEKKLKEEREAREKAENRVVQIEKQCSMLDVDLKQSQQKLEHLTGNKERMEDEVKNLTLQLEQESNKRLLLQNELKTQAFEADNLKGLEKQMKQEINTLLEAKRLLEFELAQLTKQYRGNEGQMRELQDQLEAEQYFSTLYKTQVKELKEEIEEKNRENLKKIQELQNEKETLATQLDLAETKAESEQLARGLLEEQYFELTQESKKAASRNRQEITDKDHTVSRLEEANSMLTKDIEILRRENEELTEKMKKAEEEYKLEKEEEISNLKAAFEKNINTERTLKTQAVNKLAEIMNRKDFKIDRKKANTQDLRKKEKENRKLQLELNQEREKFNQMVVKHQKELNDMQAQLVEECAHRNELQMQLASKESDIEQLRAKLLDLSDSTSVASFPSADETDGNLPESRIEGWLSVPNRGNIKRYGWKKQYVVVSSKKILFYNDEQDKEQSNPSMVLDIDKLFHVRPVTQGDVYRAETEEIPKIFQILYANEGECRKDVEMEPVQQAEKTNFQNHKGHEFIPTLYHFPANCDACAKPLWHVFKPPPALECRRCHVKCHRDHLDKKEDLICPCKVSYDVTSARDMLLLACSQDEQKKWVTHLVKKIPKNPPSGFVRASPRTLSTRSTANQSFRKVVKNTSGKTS
T1 sequence (O75116 whole entry): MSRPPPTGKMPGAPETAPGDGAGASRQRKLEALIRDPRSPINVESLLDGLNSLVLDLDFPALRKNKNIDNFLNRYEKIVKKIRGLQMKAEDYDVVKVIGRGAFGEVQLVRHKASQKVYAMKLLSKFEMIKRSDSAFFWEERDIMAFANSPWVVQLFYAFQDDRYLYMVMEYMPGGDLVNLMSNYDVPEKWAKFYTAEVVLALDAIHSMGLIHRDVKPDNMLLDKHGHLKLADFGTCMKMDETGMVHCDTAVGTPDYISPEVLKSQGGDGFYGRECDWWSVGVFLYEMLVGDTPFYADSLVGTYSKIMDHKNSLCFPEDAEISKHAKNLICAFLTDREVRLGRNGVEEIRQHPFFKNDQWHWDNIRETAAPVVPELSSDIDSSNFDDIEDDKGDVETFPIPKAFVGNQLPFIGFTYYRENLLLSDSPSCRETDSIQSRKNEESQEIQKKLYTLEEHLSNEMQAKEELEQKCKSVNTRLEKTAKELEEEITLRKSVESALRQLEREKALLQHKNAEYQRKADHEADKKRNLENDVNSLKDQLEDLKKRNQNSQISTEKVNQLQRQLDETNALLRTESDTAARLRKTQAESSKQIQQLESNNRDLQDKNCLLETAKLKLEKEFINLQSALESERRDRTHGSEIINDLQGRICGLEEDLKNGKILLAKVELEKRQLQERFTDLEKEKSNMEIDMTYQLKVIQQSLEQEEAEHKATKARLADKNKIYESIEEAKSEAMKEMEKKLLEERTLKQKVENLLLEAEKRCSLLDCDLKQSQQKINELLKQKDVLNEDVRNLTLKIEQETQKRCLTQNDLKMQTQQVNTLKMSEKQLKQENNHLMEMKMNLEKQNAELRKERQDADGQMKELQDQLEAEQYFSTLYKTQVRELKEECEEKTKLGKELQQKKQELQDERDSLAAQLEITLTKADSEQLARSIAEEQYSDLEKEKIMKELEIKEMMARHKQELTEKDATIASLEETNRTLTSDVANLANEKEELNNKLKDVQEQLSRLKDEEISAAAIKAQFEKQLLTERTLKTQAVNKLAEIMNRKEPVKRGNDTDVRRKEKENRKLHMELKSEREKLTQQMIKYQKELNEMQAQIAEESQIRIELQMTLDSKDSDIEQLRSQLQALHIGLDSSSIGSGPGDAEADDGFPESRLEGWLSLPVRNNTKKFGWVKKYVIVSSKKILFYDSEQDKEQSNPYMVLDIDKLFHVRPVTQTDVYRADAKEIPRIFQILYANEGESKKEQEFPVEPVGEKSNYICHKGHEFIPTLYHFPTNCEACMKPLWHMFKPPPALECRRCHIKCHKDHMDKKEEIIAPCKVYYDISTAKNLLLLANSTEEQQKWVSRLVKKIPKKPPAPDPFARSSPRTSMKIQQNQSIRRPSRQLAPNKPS

In the case of `COc1cc(F)cc(CNC(=O)N2CCc3cc(-c4cn[nH]c4)ccc32)c1` [Compound T202, N-(3-fluoro-5-methoxybenzyl)-5-(1H-pyrazol-4-yl)indoline-1-carboxamide], in series [1], the CC50 at 48 h is over 50000 nM. Besides, the IC50 in series [2] and in series [3] was at most 50 nM in each case. In series [4] (3 mg/kg Po vs Iv), the bioavailability was determined as 90.3%. Moreover, the AUC(0-t) in series [4] (Iv, 3 mg/kg) came out at 1740 ng·h/mL; in series [4] (Po, 3 mg/kg) it was 1570 ng·h/mL. For the same molecule, the Cmax came to 2340 ng/mL in series [4] (Iv, 3 mg/kg) and 807 ng/mL in series [4] (Po, 3 mg/kg).
As to `COc1cc(F)cc(C(=O)NC(=O)c2cn(C)c3cc(-c4cn[nH]c4)ccc23)c1` [Compound T203, 1-methyl-6-(1H-pyrazol-4-yl)-1H-indole-3-carboxylic acid-3-fluoro-5-methoxy-benzoylamide], the 50% cytotoxic concentration (CC50) in series [5] is over 50000 nM.
On to `COc1cc(F)cc(CNC(=O)N2CCCc3cc(-c4cn[nH]c4)ccc32)c1` [Compound T204, N-(3-fluoro-5-methoxybenzyl)-6-(1H-pyrazol-4-yl)-3,4-dihydroquinoline-1(2H)-carboxamide], for which the CC50 at 48 h in series [1] was over 50000 nM. Further, the values for the IC50 in series [2] and in series [3] were at most 50 nM and 50 to 500 nM, respectively.
As to `COc1cc(F)cc(CNC(=O)N2CCOc3cc(-c4cn[nH]c4)ccc32)c1` [Compound T205, N-(3-fluoro-5-methoxybenzyl)-7-(1H-pyrazol-4-yl)-2H-benzo[b][1,4]oxazine-4(3H)-carboxamide], in series [1], the CC50 at 48 h was over 50000 nM. Further, the concentration for half-maximal inhibition (IC50) in series [2] is at most 50 nM; in series [3], 50 to 500 nM.
The molecule `COc1cccc(CNC(=O)N2CCc3cc(-c4c[nH]nc4N)c(F)cc32)c1` [Compound T345, 5-(3-amino-1H-pyrazol-4-yl)-6-fluoro-N-(3-methoxybenzyl)indoline-1-carboxamide] had a 50% cytotoxic concentration (CC50) at 48 h in series [1] of 40800 nM. Further, the figures for the IC50 in series [2] and in series [3] were at most 50 nM and 50 to 500 nM, respectively. The molecule further yielded a bioavailability in series [4] (1 mg/kg Po vs Iv) of 49.1%. The exposure AUC(0-t) in series [4] (Iv, 1 mg/kg) amounted to 1260 ng·h/mL; in series [4] (Po, 1 mg/kg) it was 618 ng·h/mL. Moreover, the Cmax in series [4] (Iv, 1 mg/kg) is 977 ng/mL; in series [4] (Po, 1 mg/kg), 322 ng/mL.
`COc1cccc([C@@H](CO)NC(=O)N2CCc3cc(-c4cn[nH]c4)c(F)cc32)c1` [Compound T346]: in series [1], the midpoint of cytotoxicity, the CC50 at 48 h, lay at 45000 nM. The IC50 in series [2] and in series [3] was at most 50 nM in each case.
As to `COc1cc(F)cc(CNC(=O)c2ncn3cc(-c4cn[nH]c4F)ccc23)c1` [Compound T355, 6-(5-fluoro-1H-pyrazol-4-yl)-N-(3-fluoro-5-methoxybenzyl)imidazo[1,5-a]pyridine-1-carboxamide], in series [1], the CC50 at 48 h was over 100000 nM. The IC50 in series [2] and in series [3] was at most 50 nM each time.
In turn, `O=C(NC1CCCC1)c1cccc([C@H](CO)NC(=O)N2CCc3cc(-c4cn[nH]c4)c(F)cc32)c1` [Compound T356-R, (R)-N-(1-(3-(cyclopentylcarbamoyl)phenyl)-2-hydroxyethyl)-6-fluoro-5-(1H-pyrazol-4-yl)indoline-1-carboxamide] had a 50% cytotoxic concentration (CC50) at 48 h in series [1] of over 200000 nM. Also, the IC50 in series [2] and in series [3] was 50 to 500 nM throughout.
Take `COc1cccc(CNC(=O)N2CCc3cc(-c4c[nH]nc4F)c(F)cc32)c1` [Compound T357, 6-fluoro-5-(3-fluoro-1H-pyrazol-4-yl)-N-(3-methoxybenzyl)indoline-1-carboxamide]: the CC50 at 48 h in series [1] was 96000 nM. In addition, the half-maximal inhibitory concentration (IC50) in series [2] and in series [3] was at most 50 nM in each case. The same molecule displayed a bioavailability in series [4] (1 mg/kg Po vs Iv) of 71.1%. Also, the AUC(0-t) came out at 1090 ng·h/mL in series [4] (Iv, 1 mg/kg) and 775 ng·h/mL in series [4] (Po, 1 mg/kg). For the same molecule, the Cmax stood at 811 ng/mL in series [4] (Iv, 1 mg/kg) and 352 ng/mL in series [4] (Po, 1 mg/kg).
With `COc1cccc(CNC(=O)c2ncn3cc(-c4cn[nH]c4)ccc23)c1` [Compound T361, N-(3-methoxybenzyl)-6-(1H-pyrazol-4-yl)imidazo[1,5-a]pyridine-1-carboxamide], in series [1], the CC50 at 48 h is over 100000 nM. Besides, the IC50 in series [2] was at most 50 nM; in series [3], 50 to 500 nM.
In series [1], `O=C(NCc1cccc(OCC2CC2)c1)N1CCc2cc(-c3c[nH]nc3F)c(F)cc21` [Compound T380, N-(3-(cyclopropylmethoxy)benzyl)-6-fluoro-5-(3-fluoro-1H-pyrazol-4-yl)indoline-1-carboxamide] had a CC50 at 48 h of 35300 nM. Also, the IC50 in series [2] was at most 50 nM; in series [3], 50 to 500 nM.
On the same counts, the results for `COc1cc(CNC(=O)N2CCc3cc(-c4cn[nH]c4F)c(F)cc32)ccc1F` [Compound T384, 6-fluoro-5-(5-fluoro-1H-pyrazol-4-yl)-N-(4-fluoro-3-methoxybenzyl)indoline-1-carboxamide] are over 100000 nM, at most 50 nM and at most 50 nM.
The molecule `COc1cc(F)cc(CNC(=O)N2CCc3cc(-c4c[nH]nc4N)c(F)cc32)c1` [Compound T385, 5-(3-amino-1H-pyrazol-4-yl)-6-fluoro-N-(3-fluoro-5-methoxybenzyl)indoline-1-carboxamide] showed a CC50 at 48 h in series [1] of over 100000 nM. For the same molecule, the IC50 in series [2] is at most 50 nM; in series [3], 50 to 500 nM.
As for `O=C(NCc1cc(F)cc(F)c1)N1CCc2cc(-c3cn[nH]c3F)c(F)cc21` [Compound T387, N-(3,5-difluorobenzyl)-6-fluoro-5-(5-fluoro-1H-pyrazol-4-yl)indoline-1-carboxamide], the CC50 at 48 h in series [1] is over 100000 nM. Further, the IC50 in series [2] and in series [3] was at most 50 nM each time. In series [4] (1 mg/kg Po vs Iv), this molecule displayed a bioavailability of 82.8%. For the same molecule, the AUC(0-t) is 753 ng·h/mL in series [4] (Iv, 1 mg/kg) and 623 ng·h/mL in series [4] (Po, 1 mg/kg). Besides, the Cmax in series [4] (Iv, 1 mg/kg) turned out to be 492 ng/mL; in series [4] (Po, 1 mg/kg), 188 ng/mL.
`COc1cccc(CNC(=O)c2ncn3cc(-c4cn[nH]c4F)ccc23)c1` [Compound T391, 6-(5-fluoro-1H-pyrazol-4-yl)-N-(3-methoxybenzyl)imidazo (1,5-a)pyridine-1-carboxamide] displayed a CC50 at 48 h in series [1] of over 100000 nM. In addition, the IC50 in series [2] and in series [3] was at most 50 nM in each case.
